Experimental data published in patent US12037415B2, “Peptide and pharmaceutical composition for treating an eye disease comprising the same as an active pharmaceutical ingredient” (YuYu Pharma, Inc., priority 2017, dated 2024).
Starred links: 1 amine or outer side, 2 acyl side, 3 side chain; linkers in the order of their positions; H or OH if unused. Non-standard residues stand in square brackets, D forms with d. Residues, ends and D or L forms follow the SMILES beside them. ξ: configuration not given here. cisHyp = O=C(O)[C@@H]1C[C@H](O)CN1; X1 = O=C([C@H](CCCCO)N[*:1])[*:2]; Hyp = O=C(O)[C@@H]1C[C@@H](O)CN1; Ile(3ξ) = CCC(C)[C@H](N)C(=O)O

Experiments:
[1] = system: cornea of rats with dry eye syndrome (ELGE); assay: Corneal permeability of fluorescent dye (corneal damage) in rats with ELGE-induced dry eye syndrome; type: in vivo, rat; settings: 0.3% solution, day 14 after the administration
Source text: (§1) In order to evaluate the eye protection effect on dry eye syndrome by YDE-001 to YDE-028 prepared in Working Example 1, a total of 320 Sprague-Dawley-type male rats (OrientBio, Seungnam, Korea) were adapted for 7 days. Thereafter, dry eye syndrome was induced in 264 test rats through extraorbital lacrimal gland excision (hereinafter, ELGE). 8 test rats without the eye abnormality were subjected to a sham operation as a control group.
(§2) The rats were systemically anesthetized by inhaling a mixed gas of 2% to 3% of isoflurane (Hana Pharm. Co., Hwasung, Korea), 70% of N2O, and 28.6% of O2 using a rodent anesthesia machine (Surgivet, Waukesha, Wis., USA) and a ventilator (Model 687, Harvard Apparatus, Cambridge, UK). Thereafter, the extraorbital lacrimal gland located in the subdermal area above the masseter muscle and under the optic nerve was excised through a transverse incision in a size of 10 mm on the anterior part of the left ear tragus. The skin was sutured by a general method. […] After 6 days following the ELGE operation, confirmation was performed through the Schirmer test by measuring the amount of tear secretion whether dry eye syndrome had been induced. Meanwhile, each rat of the control group with the sham operation was checked for the presence and location of the extraorbital lacrimal gland through a skin incision, and the skin was then sutured without the excision thereof (FIG. 134).
(§3) In addition, in order to evaluate the eye protection effect on dry eye syndrome by YDE-029 to YDE-043 prepared in Working Example 1, a total of 200 Sprague-Dawley-type male rats (OrientBio, Seungnam, Korea) were adapted for 7 days. Dry eye syndrome was induced in 165 test rats through the ELGE. 8 test rats without the eye abnormality were subjected to the sham operation as a control group. The ELGE was carried out as described above.
(§4) For YDE-001 to YDE-028, YY-102 and the 28 YDE-series were each dissolved in physiological saline at a concentration of 3 mg/ml and administered at a dose of 5 μl/eye at 9:30 am and 3:30 pm daily for 14 days after 7 days from the ELGE operation for a total of 28 times. The DS solution was dissolved in physiological saline at a concentration of 30 mg/ml and administered at a dose of 5 μl/eye twice a day for 14 days after 7 days from the ELGE operation for a total of 28 times. For the sham control and the ELGE control groups, the same stimulation as the administration was applied. In order to prevent excessive eye dryness, the same volume of physiological saline was applied in the same manner in place of the test substances.
as §4, with “Further, For YDE-029” for “For YDE-001”, “Further, For YDE-029 to YDE-043,” for “For YDE-001 to YDE-028,”, “YDE-029 to YDE-043, YY-102 and” for “YDE-001 to YDE-028, YY-102 and”, “and the 15 YDE-series were” for “and the 28 YDE-series were”, “the test substances (FIG. 137).” for “the test substances.”
After YDE-001 to YDE-028 were each administered to the eyes […], the changes in the corneal permeability were checked.
In order to measure the corneal permeability, Zolethyl 50™ (Virbac Lab., Carros, France), an animal anesthetic, was intraperitoneally injected at a dose of 25 mg/kg. Thereafter, saline containing a 1% (v/v) fluorescent solution (fluorescein sodium salt, Tokyo Kasei Kogyo Co., Tokyo, Japan) was applied to the eyes at a dose of 5 μl/eye. The eyes thus treated were closed and fixed with a tape. After 1 hour, the remaining fluorescent solution was removed using a cotton swab (FIG. 142). […]

[2] = system: rats with dry eye syndrome (extraorbital lacrimal gland excision, ELGE); assay: Amount of tear secretion (Schirmer test, cobalt chloride paper) in rats with ELGE-induced dry eye syndrome; type: in vivo, rat; settings: 0.3% solution (DS 3%), administration for 14 days
Source text: as §1, §2, §3, §4
as §4, with “Further, For YDE-029” for “For YDE-001”, “Further, For YDE-029 to YDE-043,” for “For YDE-001 to YDE-028,”, “YDE-029 to YDE-043, YY-102 and” for “YDE-001 to YDE-028, YY-102 and”, “and the 15 YDE-series were” for “and the 28 YDE-series were”, “the test substances (FIG. 137).” for “the test substances.”
After 6 days from the ELGE surgery, the changes in the amount of tear secretion were measured at day 7 and day 14 after the administration of YDE-001 to YDE-043. The amount of tear secretion was measured by the […] travel distance of tears absorbed by cobalt chloride paper in a size of 1×15 mm (Toyo Roshi Kaisha, Japan).
The cobalt chloride paper was placed in the lateral canthus of a rat for 60 seconds to absorb tears (FIG. 139). The length of the area absorbed from the corner of the cobalt chloride paper was measured with an electronic digital caliper (Mytutoyo, Tokyo, Japan) (FIG. 138).

[3] = Stability in aqueous solution, amount of related substances under long-term storage conditions; type: physicochemical; settings: glass vial, 25° C., 75% RH
Procedure: In order to confirm the stability of each test substance in an aqueous solution, […] of each sample was dissolved in 1 ml of water to a concentration of 1 mg/ml, which was then charged to a glass vial, plugged with a rubber cap, sealed with an aluminum cap, and stored under long-term storage conditions (25° C., 75% RH). The stability of the test substance was evaluated by measuring the amount of related substances at the time of one week, two weeks, four weeks, eight weeks, and twelve weeks under the long-term storage conditions.

[4] = study of YDE-029 to YDE-043 (Table 17)
[5] = study of YDE-001 to YDE-028 (Table 16)

SMILES	Permeability of fluorescent dye (%) [1, 4] [%]	Amount of tear secretion as compared with the ELGE control group ([2]; study of YDE-029 to YDE-043)	Permeability of fluorescent dye (%) [1, 5] [%]	Amount of related substances (%; after 12 weeks) [3] [%]	Amount of tear secretion as compared with the ELGE control group ([2]; study of YDE-001 to YDE-028)
CC(C)C[C@H](NC(=O)CNC(=O)[C@H](CC(C)C)NC(=O)[C@H](CCC(N)=O)NC(=O)CNC(=O)[C@@H]1C[C@H](O)CN1)C(=O)N[C@@H](C)C(=O)NCC(=O)N1CCC[C@H]1C(=O)N[C@@H](CCCCN)C(=O)O [YDE-034, Hyp(2S, 4S)-Gly-Gln-Leu-Gly-Leu-Ala-Gly-Pro-Lys] (H-[cisHyp]GQLGLAGPK-OH)	32.17 ± 12.94	did not show any significant changes	–	–	–
CC(C)C[C@H](NC(=O)CNC(=O)[C@H](CC(C)C)NC(=O)[C@H](CCC(N)=O)NC(=O)CNC(=O)[C@@H]1C[C@@H](O)CN1)C(=O)N[C@@H](C)C(=O)O [YDE-041, HyP-Gly-Gln-Leu-Gly-Leu-Ala] (H-[Hyp]GQLGLA-OH)	46.38 ± 26.65	did not show any significant changes	–	–	–
CC(C)C[C@H](NC(=O)CNC(=O)[C@H](CC(C)C)NC(=O)[C@H](CCC(N)=O)NC(=O)CNC(=O)[C@@H]1C[C@@H](O)CN1)C(=O)N[C@@H](C)C(=O)NCC(=O)N1CCC[C@H]1C(=O)N[C@@H](Cc1ccc(O)cc1)C(=O)O [YDE-029, HyP-Gly-Gln-Leu-Gly-Leu-Ala-Gly-Pro-Tyr] (H-[Hyp]GQLGLAGPY-OH)	63.45 ± 11.57	did not show any significant changes	–	–	–
CC(C)C[C@H](NC(=O)CNC(=O)[C@H](CC(C)C)NC(=O)[C@H](CCC(N)=O)NC(=O)CNC(=O)[C@@H]1C[C@@H](O)CN1)C(=O)N[C@@H](C)C(=O)NCC(=O)N1CCC[C@H]1C(=O)N[C@@H](CCCCO)C(=O)O [YDE-033, HyP-Gly-Gln-Leu-Gly-Leu-Ala-Gly-Pro-Nle(6-OH)] (H-[Hyp]GQLGLAGP[X1]-OH)	60.55 ± 21.22	did not show any significant changes	–	–	–
CC(C)C[C@H](NC(=O)CNC(=O)[C@H](CC(C)C)NC(=O)[C@H](CCC(N)=O)NC(=O)CNC(=O)[C@@H]1C[C@@H](O)CN1)C(=O)N[C@@H](C)C(=O)NCC(=O)N1CCC[C@H]1C(=O)N[C@@H](CCCCN)C(=O)O [YDE-011, HyP-Gly-Gln-Leu-Gly-Leu-Ala-Gly-Pro-Lys] (H-[Hyp]GQLGLAGPK-OH)	–	–	18.11 ± 11.61	3.83	–
CC(C)C[C@H](NC(=O)CNC(=O)[C@H](Cc1cnc[nH]1)NC(=O)[C@H](CCC(N)=O)NC(=O)CNC(=O)[C@@H]1C[C@@H](O)CN1)C(=O)N[C@@H](C)C(=O)NCC(=O)N1CCC[C@H]1C(=O)N[C@@H](CCCCN)C(=O)O [YDE-004, HyP-Gly-Gln-His-Gly-Leu-Ala-Gly-Pro-Lys] (H-[Hyp]GQHGLAGPK-OH)	–	–	35.05 ± 11.74	2.11	–
CC(C)C[C@H](NC(=O)CNC(=O)[C@H](CC(N)=O)NC(=O)[C@H](CCC(N)=O)NC(=O)CNC(=O)[C@@H]1C[C@@H](O)CN1)C(=O)N[C@@H](C)C(=O)NCC(=O)N1CCC[C@H]1C(=O)N[C@@H](CCCCN)C(=O)O [YDE-002, HyP-Gly-Gln-Asn-Gly-Leu-Ala-Gly-Pro-Lys] (H-[Hyp]GQNGLAGPK-OH)	–	–	38.26 ± 11.25	4.93	–
CC(C)C[C@H](NC(=O)CNC(=O)[C@H](C)NC(=O)[C@H](CCC(N)=O)NC(=O)CNC(=O)[C@@H]1C[C@@H](O)CN1)C(=O)N[C@@H](C)C(=O)NCC(=O)N1CCC[C@H]1C(=O)N[C@@H](CCCCN)C(=O)O [YDE-008, HyP-Gly-Gln-Ala-Gly-Leu-Ala-Gly-Pro-Lys] (H-[Hyp]GQAGLAGPK-OH)	–	–	20.32 ± 11.87	4.42	–
CC(C)C[C@H](NC(=O)CNC(=O)[C@H](CO)NC(=O)[C@H](CCC(N)=O)NC(=O)CNC(=O)[C@@H]1C[C@@H](O)CN1)C(=O)N[C@@H](C)C(=O)NCC(=O)N1CCC[C@H]1C(=O)N[C@@H](CCCCN)C(=O)O [YDE-006, HyP-Gly-Gln-Ser-Gly-Leu-Ala-Gly-Pro-Lys] (H-[Hyp]GQSGLAGPK-OH)	–	–	33.23 ± 13.26	3.67	–
CC(C)C[C@H](NC(=O)[C@H](CO)NC(=O)[C@H](CC(=O)O)NC(=O)[C@H](CCC(N)=O)NC(=O)CNC(=O)[C@@H]1C[C@@H](O)CN1)C(=O)N[C@@H](C)C(=O)NCC(=O)N1CCC[C@H]1C(=O)N[C@@H](CCCCN)C(=O)O [YDE-023, HyP-Gly-Gln-Asp-Ser-Leu-Ala-Gly-Pro-Lys] (H-[Hyp]GQDSLAGPK-OH)	–	–	26.51 ± 8.18	30.66	–
CC(C)C[C@H](NC(=O)CNC(=O)[C@H](CC(C)C)NC(=O)[C@H](CCC(N)=O)NC(=O)CNC(=O)[C@@H]1C[C@@H](O)CN1)C(=O)N[C@@H](C)C(=O)NCC(=O)N1CCC[C@H]1C(=O)N[C@@H](CCC(N)=O)C(=O)O [YDE-032, HyP-Gly-Gln-Leu-Gly-Leu-Ala-Gly-Pro-Gln] (H-[Hyp]GQLGLAGPQ-OH)	58.90 ± 19.81	did not show any significant changes	–	–	–
CCC(C)[C@H](NC(=O)[C@H](CC(=O)O)NC(=O)[C@H](CCC(N)=O)NC(=O)CNC(=O)[C@@H]1C[C@@H](O)CN1)C(=O)N[C@@H](CC(C)C)C(=O)N[C@@H](C)C(=O)NCC(=O)N1CCC[C@H]1C(=O)N[C@@H](CCCCN)C(=O)O (stereo partly drawn) [YDE-016, HyP-Gly-Gln-Asp-Ile-Leu-Ala-Gly-Pro-Lys] (H-[Hyp]GQD[Ile(3ξ)]LAGPK-OH)	–	–	24.57 ± 10.34	11.33	–
CC(C)C[C@H](NC(=O)CNC(=O)[C@H](Cc1c[nH]c2ccccc12)NC(=O)[C@H](CCC(N)=O)NC(=O)CNC(=O)[C@@H]1C[C@@H](O)CN1)C(=O)N[C@@H](C)C(=O)NCC(=O)N1CCC[C@H]1C(=O)N[C@@H](CCCCN)C(=O)O [YDE-014, HyP-Gly-Gln-Trp-Gly-Leu-Ala-Gly-Pro-Lys] (H-[Hyp]GQWGLAGPK-OH)	–	–	31.15 ± 10.87	6.72	–
O=c1ccn([C@@H]2O[C@H](COP(=O)(O)OP(=O)(O)OP(=O)(O)OP(=O)(O)OC[C@H]3O[C@@H](n4ccc(=O)[nH]c4=O)[C@H](O)[C@@H]3O)[C@@H](O)[C@H]2O)c(=O)[nH]1 [DS, diquafosol sodium, reference compound]	–	increased	–	–	increased
